The source of these data is US20210323950A1, “HERBICIDALLY ACTIVE BICYCLIC BENZOYLPYRAZOLES” (Bayer Aktiengesellschaft, priority 2018, published 2021).

Assay type in all cases: in vivo
Common to all, as to conditions: 320 g/ha, scored visually after about 3 weeks vs untreated controls

One experiment relates to Viola tricolor (VIOTR). Briefly: Pre-emergence herbicidal action against VIOTR. An excerpt:
(§1) VIOTR: Viola tricolor 1. Pre-Emergence Herbicidal Action and Crop Plant Compatibility Seeds of monocotyledonous and dicotyledonous weed plants and crop plants are placed in plastic or organic planting pots and covered with soil. The compounds of the invention, formulated in the form of wettable powders (WP) or as emulsion concentrates (EC), are then applied onto the surface of the covering soil as aqueous suspension or emulsion with addition of 0.5% additive at a water application rate of […] (converted). After the treatment, the pots are placed in a greenhouse and kept under good growth conditions for the trial plants. After about 3 weeks, the effect of the preparations is scored visually in comparison with untreated controls as percentages. The tables below show the herbicidal activity of numerous compounds according to the invention against important harmful plants. For example, 100% activity=the plants have died, 0% activity=like control plants.

The subject of another experiment is Veronica persica (VERPE). Briefly: Pre-emergence herbicidal action against VERPE.
Excerpt: as §1, with “VERPE: Veronica persica” for “VIOTR: Viola tricolor”

The test system of experiment [1] is Cyperus esculentus (CYPES). As to the kind of experiment: Pre-emergence herbicidal action against CYPES.
Excerpt: as §1, with “CYPES: Cyperus esculentus” for “VIOTR: Viola tricolor”

For experiment [2], the system named is Echinochloa crus-galli (ECHCG). As to the kind of experiment: Pre-emergence herbicidal action against ECHCG.
Excerpt: as §1, with “ECHCG: Echinochloa crus-galli” for “VIOTR: Viola tricolor”

Another experiment relates to Stellaria media (STEME). As to the kind of experiment: Pre-emergence herbicidal action against STEME. The essentials: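 Weed seeds are sown in pots under soil, and WP or EC formulations are applied pre-emergence to the soil surface as an aqueous suspension or emulsion with 0.5% additive. After about 3 weeks in the greenhouse, effect is scored visually as % versus untreated controls (100% = plants dead, 0% = like control).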

The test system of a further experiment is Setaria viridis (SETVI). Briefly: Pre-emergence herbicidal action against SETVI.
Excerpt: as §1, with “SETVI: Setaria viridis” for “VIOTR: Viola tricolor”

In experiment [3] the test system is Abutilon theophrasti (ABUTH). As to the kind of experiment: Pre-emergence herbicidal action against ABUTH.
Excerpt: as §1, with “ABUTH: Abutilon theophrasti” for “VIOTR: Viola tricolor”

The subject of experiment [4] is Amaranthus retroflexus (AMARE). As to the kind of experiment: Pre-emergence herbicidal action against AMARE. In short, it runs like this: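 Formulated compounds (WP or EC) sprayed onto soil covering sown seeds, with 0.5% additive at […] water (converted). Greenhouse-grown about 3 weeks, then damage scored visually as percent versus untreated controls (100% = dead, 0% = like control).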

Consider `Cn1ncc(C(=O)c2ccc(C(F)(F)F)c3c2OCS3(=O)=O)c1O` [Example 1-43], for which, in the experiment with Viola tricolor (VIOTR), the “Pre-emergence action against VIOTR” value worked out at 100%. In the experiment with Veronica persica (VERPE), the “Pre-emergence action against VERPE” value is recorded as 100%. The “Pre-emergence action against CYPES” value in experiment [1] was found to be 100%. For the same compound, the “Pre-emergence action against ECHCG” value in experiment [2] is recorded as 100%. Moreover, in the experiment on Stellaria media (STEME), the “Pre-emergence action against STEME” value was determined as 90%. Besides, the “Pre-emergence action against SETVI” value in the experiment with Setaria viridis (SETVI) was 100%. In addition, in experiment [3], the “Pre-emergence action against ABUTH” value is recorded as 90%. Also, the “Pre-emergence action against AMARE” value in experiment [4] came to 100%.
